From publication PMC8391127, “Triterpenoid–PEG Ribbons Targeting Selectivity in Pharmacological Effects” (Biomedicines, 2021)
Read-outs that look alike come from different tables or passages of the source. Marks after values point to notes of the source that are not given here.

Tests used:
Enterococcus faecalis = assay: Antimicrobial screening, resazurine test; format: cell-based; settings: for inhibition at 25 µg/mL / inhibition at 50 µg/mL / inhibition at 100 µg/mL: Enterococcus faecalis, read-out: Inhibition of the microorganism
Experimental: (§1) The resazurine test was used to evaluate this activity.
(§2) The cell inoculum was made in Mueller–Hinton broth (10 mL). Colonies of cells were inoculated from the solid medium that was cultivated for 24 h under optimum conditions. A part of the inoculum was diluted to get suspension with an optical density 0.6 to 0.9 McF. An aliquot amount (1 mL) was taken and diluted with additional volume of the medium (19 mL). The stored solutions of the tested compounds were made at a concentration c = 200 µg.mL^−1. The stored suspensions of the cells, MHB medium, solutions of the antibiotics specific for the given bacteria (vancomycin for S. aureus and E. faecalis, kanamycin for E. coli and P. aeruginosa, and tetracycline for B. cereus), and the solutions of the compounds were pipetted into the microtitration plates. Subsequently, a concentration sequence of the tested compounds was made (c = 100, 50, and 25 µg.mL^−1). The content of the microtitration plates was cultivated for 24 h under optimum conditions for the given bacteria. A solution of resazurine was made, based on a dilution of its stored solution (c = 0.15 mg.mL^−1; 2 mL) into the MHB medium (18 mL). Then, it was pipetted into the microtitration plates that were cultivated for an additional 1 h. Finally, fluorescence measurement (excitation at 560 nm, emission at 590 nm) was made, and the inhibition of the bacterium was determined.
(§3) 2. Antimicrobial screening tests
(§4) Antimicrobial activity of the target molecular ribbons 8a, 12a, 8b, 12b, 4c, 6c, 6d and 8d, and […]
(§5) aeruginosa, Staphylococcus aureus and Enterococcus faecalis. The resazurine test was used to […]
(§6) ribbons which have been achieved in this investigation.
(§7) Table S1. Antimicrobial activity, inhibition of the microorganism [%]
(§8) Comp. Staphylococcus aureus Comp. Escherichia coli […]
(§9) µg·mL-1 µg·mL-1 µg·mL-1 µg·mL-1 µg·mL-1 µg·mL-1
(§10) Comp. Bacillus cereus Comp. Pseudomonas aeruginosa

Escherichia coli = assay: Antimicrobial screening, resazurine test; format: cell-based; settings: Escherichia coli, read-out: Inhibition of the microorganism
Experimental: as §1, §2, §3, §4, §5, §6, §7, §8, §9, §10

Bacillus cereus = assay: Antimicrobial screening, resazurine test; format: cell-based; settings: for inhibition at 25 µg/mL / inhibition at 50 µg/mL / inhibition at 100 µg/mL: Bacillus cereus
Experimental: as §1, §2, §3, §4, §5, §6, §7, §8, §9, §10

Staphylococcus aureus = assay: Antimicrobial screening, resazurine test; format: cell-based; settings: Staphylococcus aureus, read-out: Inhibition of the microorganism
Experimental: as §1, §2, §3, §4, §5, §6, §7, §8, §9, §10

Pseudomonas aeruginosa = assay: Antimicrobial screening, resazurine test; format: cell-based
Experimental: as §1, §2, §3, §4, §5, §6, §7, §8, §9, §10

[1] = Ability to form supramolecular gel; format: physicochemical; settings: 1% w/v in solvent, ultrasound 30 min, heated to boiling, cooled to r.t. 24 h
Experimental: The solutions of the studied compounds 8a, 12a, 8b, 12b, 4c, 6c, 6d, and 8d (1%, w/v) in the appropriate solvent were mixed with ultrasound for 30 min, then heated to the boiling points of the used solvents, and then allowed to cool down to the r.t. for 24 h. An example of the resulting gels that were produced from 8a, 4c, 6c, and 6d is shown in the Supplementary Material, Figure S1.

[2] = Self-assembly by UV-VIS spectrometry in methanol/water mixtures; format: physicochemical; settings: 0-140 h
Experimental: The self-assembly of the selected compounds 8a, 12a, 8b, 12b, 4c, 6c, 6d, and 8d was measured using UV absorption in methanol/water mixtures with a constant concentration of the studied compound for 7 days in one-hour intervals on the first day, and in 24 h intervals all following days. The stock solutions of the studied compounds were prepared at a concentration of 1 mg·mL^−1 in water. Then, a series of methanol/water mixtures were prepared starting from a methanol/water ratio 100/0 down to 0/100 in 20% steps. The stock solutions of the studied compounds (0.15 mL) were added separately to each vial containing methanol/water mixtures (3 mL), and the UV spectra were recorded in the wavelength range of 200–400 nm. […] For the compounds 8a, 12a, 12b and 6d, the details are presented in the Supplementary Material; see Figure S2.
Supramolecular self-assembly was studied on the basis of the UV-VIS spectra of the compounds in several methanol/water mixtures stepwise during the time interval 0-140 h. Here we show compounds 8a, 12a, 12b and 6d as examples, with which the irregularities in the UV-VIS spectra were either well pronounced (8a and 12a; Figure S2), or no substantial irregularity was detected (12b and 6d).
Figure S2. UV-VIS spectra of 8a (top) and 12a (bottom) measured in the interval 0-140 h.
During that time interval a new maximum appeared at 300 nm wavelength, and the shape of the curves is different than in any of the other intervals of measurement. […]

[3] = B. cereus, c = 25 µg·mL-1, read-out: Inhibition of the microorganism
[4] = B. cereus, c = 50 µg·mL-1, read-out: Inhibition of the microorganism
[5] = B. cereus, c = 100 µg·mL-1, read-out: Inhibition of the microorganism
[6] = P. aeruginosa, c = 25 µg·mL-1, read-out: Inhibition of the microorganism
[7] = P. aeruginosa, c = 50 µg·mL-1, read-out: Inhibition of the microorganism
[8] = P. aeruginosa, c = 100 µg·mL-1, read-out: Inhibition of the microorganism
[9] = read-out: Inhibition of the microorganism

Row | Compound | inhibition at 25 µg/mL (Enterococcus faecalis; E. faecalis, c = 25 µg·mL-1) [%] | inhibition at 50 µg/mL (Enterococcus faecalis; E. faecalis, c = 50 µg·mL-1) [%] | inhibition at 100 µg/mL (Enterococcus faecalis; E. faecalis, c = 100 µg·mL-1) [%] | inhibition at 25 µg/mL (Escherichia coli; E. coli, c = 25 µg·mL-1) [%] | inhibition at 50 µg/mL (Escherichia coli; E. coli, c = 50 µg·mL-1) [%] | inhibition at 100 µg/mL (Escherichia coli; E. coli, c = 100 µg·mL-1) [%] | inhibition at 25 µg/mL (Bacillus cereus; [3]) [%] | inhibition at 50 µg/mL (Bacillus cereus; [4]) [%] | inhibition at 100 µg/mL (Bacillus cereus; [5]) [%] | inhibition at 25 µg/mL (Staphylococcus aureus; S. aureus, c = 25 µg·mL-1) [%] | inhibition at 50 µg/mL (Staphylococcus aureus; S. aureus, c = 50 µg·mL-1) [%] | inhibition at 100 µg/mL (Staphylococcus aureus; S. aureus, c = 100 µg·mL-1) [%] | inhibition at 25 µg/mL (Pseudomonas aeruginosa; [6]) [%] | inhibition at 50 µg/mL (Pseudomonas aeruginosa; [7]) [%] | inhibition at 100 µg/mL (Pseudomonas aeruginosa; [8]) [%] | further results
1 | CC1(C)CC[C@]2(C(=O)O)CC[C@]3(C)C(=CC[C@@H]4[C@@]5(C)CC[C@H](O)C(C)(C)[C@@H]5CC[C@]43C)[C@@H]2C1 [1a, Oleanolic acid, reference compound] | > 87 | 90 ± 13.5 | 89 ± 13.4 | 0 to 1 | 0 to 1 | 0 to 1 | > 77 | 77 ± 11.6 | 77 ± 11.6 | 0 to 1 | 8 ± 1.2 | 33 ± 5 | 0 to 1 | 0 to 1 | 0 to 1 | Inhibition of the microorganism (Enterococcus faecalis; E. faecalis, c = 25 µg·mL-1): 87 ± 13.0%; Inhibition of the microorganism (Bacillus cereus; B. cereus, c = 25 µg·mL-1): 76 ± 11.4%
2 | CC1(C)C=C2[C@H]3CC[C@@H]4[C@@]5(C)CC[C@H](O)C(C)(C)[C@@H]5CC[C@@]4(C)[C@]3(C)CC[C@@]2(C(=O)O)CC1 [1b, morolic acid, reference compound] |  |  |  |  |  |  |  |  |  |  |  |  |  |  |  | inhibition at 25 µg/mL (Enterococcus faecalis): 38 ± 5.7%; inhibition at 50 µg/mL (Enterococcus faecalis): 64 ± 9.6%; inhibition at 100 µg/mL (Enterococcus faecalis): 69 ± 10.4%; inhibition at 25 µg/mL (Escherichia coli): 0 to 1%; inhibition at 50 µg/mL (Escherichia coli): 2 ± 0.3%; inhibition at 100 µg/mL (Escherichia coli): 0 to 1%; Inhibition of the microorganism (Bacillus cereus; B. cereus, c = 25 µg·mL-1): 78 ± 11.7%; inhibition at 25 µg/mL (Bacillus cereus; read-out: Inhibition of the microorganism, B. cereus, c = 25 µg·mL-1): > 77%; inhibition at 50 µg/mL (Bacillus cereus; read-out: Inhibition of the microorganism, B. cereus, c = 50 µg·mL-1): 76 ± 11.4%; inhibition at 100 µg/mL (Bacillus cereus; read-out: Inhibition of the microorganism, B. cereus, c = 100 µg·mL-1): 75 ± 11.3%; inhibition at 25 µg/mL (Staphylococcus aureus): 21 ± 3.2%; inhibition at 50 µg/mL (Staphylococcus aureus): 17 ± 2.6%; inhibition at 100 µg/mL (Staphylococcus aureus): 47 ± 7%; inhibition at 25 µg/mL (Pseudomonas aeruginosa; [9]): 0 to 1%; inhibition at 50 µg/mL (Pseudomonas aeruginosa; [9]): 0 to 1%; inhibition at 100 µg/mL (Pseudomonas aeruginosa; [9]): 0 to 1%
3 | CC1(C)C=C2[C@H]3CC[C@@H]4[C@@]5(C)CCC(=O)C(C)(C)[C@@H]5CC[C@@]4(C)[C@]3(C)CC[C@@]2(C(=O)O)CC1 [1c, moronic acid, reference compound] | 0 to 1 | 0 to 1 | 0 to 1 | 0 to 1 | 0 to 1 | 0 to 1 | 0 to 1 | 15 ± 2.3 | 66 ± 9.9 | 0 to 1 | 3 ± 0.5 | 10 ± 1.5 | 0 to 1 | 0 to 1 | 0 to 1 | 
4 | CC1(C)C=C2[C@H]3CC[C@@H]4[C@@]5(C)CCC(=O)C(C)(C)[C@@H]5CC[C@@]4(C)[C@]3(C)CC[C@@]2(C(=O)NCCOCCOCCOCCn2cc(COC(=O)[C@]34CCC(C)(C)C=C3[C@H]3CC[C@@H]5[C@@]6(C)CCC(=O)C(C)(C)[C@@H]6CC[C@@]5(C)[C@]3(C)CC4)nn2)CC1 [4c] | > 62 | 50 ± 7.5 | 43 ± 6.5 | 25 ± 3.8 | 34 ± 5.1 | 31 ± 4.7 | 2 ± 0.3 | 0 to 1 | 6 ± 9 | 11 ± 1.7 | 66 ± 9.9 | 76 ± 11.4 | 50 ± 7.5 | 47 ± 7 | 46 ± 6.8 | Inhibition of the microorganism (Enterococcus faecalis; E. faecalis, c = 25 µg·mL-1): 62 ± 9.3 ^e %; Gel formation [1]: produced a gel in glycerol
5 | CC1(C)C=C2C3CC[C@@H]4[C@@]5(C)CC[C@H](OCc6cn(CCOCCOCCOCCNC(=O)[C@]78CCC(C)(C)C=C7C7CC[C@@H]9[C@@]%10(C)CC[C@H](O)C(C)(C)[C@@H]%10CC[C@@]9(C)[C@]7(C)CC8)nn6)C(C)(C)[C@@H]5CC[C@@]4(C)[C@]3(C)CC[C@@]2(C(=O)O)CC1 (stereo partly shown) [8b] | 20 ± 3 | 43 ± 6.5 | 54 ± 8.1 | 17 ± 2.6 | 25 ± 3.8 | 31 ± 4.7 | 16 ± 2.4 | 38 ± 5.7 | 0 to 1 | 0 to 1 | 24 ± 3.6 | 77 ± 11.6 | 33 ± 5 | 59 ± 8.9 | 60 ± 9 | 
6 | CC1(C)CC[C@]2(C(=O)O)CC[C@]3(C)C(=CC[C@@H]4[C@@]5(C)CC[C@H](OCc6cn(CCOCCOCCOCCNC(=O)[C@]78CCC(C)(C)CC7C7=CC[C@@H]9[C@@]%10(C)CC[C@H](OCc%11cn(CCOCCOCCOCCNC(=O)[C@]%12%13CCC(C)(C)CC%12C%12=CC[C@@H]%14[C@@]%15(C)CC[C@H](O)C(C)(C)[C@@H]%15CC[C@@]%14(C)[C@]%12(C)CC%13)nn%11)C(C)(C)[C@@H]%10CC[C@@]9(C)[C@]7(C)CC8)nn6)C(C)(C)[C@@H]5CC[C@]43C)C2C1 (stereo partly shown) [12a] |  |  |  |  |  |  |  |  |  |  |  |  |  |  |  | Irregularity in UV-VIS spectra (self-assembly) [2]: Irregularities were detected
7 | CC1(C)C=C2C3CC[C@@H]4[C@@]5(C)CC[C@H](OCc6cn(CCOCCOCCOCCNC(=O)[C@]78CCC(C)(C)C=C7C7CC[C@@H]9[C@@]%10(C)CC[C@H](OCc%11cn(CCOCCOCCOCCNC(=O)[C@]%12%13CCC(C)(C)C=C%12C%12CC[C@@H]%14[C@@]%15(C)CC[C@H](O)C(C)(C)[C@@H]%15CC[C@@]%14(C)[C@]%12(C)CC%13)nn%11)C(C)(C)[C@@H]%10CC[C@@]9(C)[C@]7(C)CC8)nn6)C(C)(C)[C@@H]5CC[C@@]4(C)[C@]3(C)CC[C@@]2(C(=O)O)CC1 (stereo partly shown) [12b] |  |  |  |  |  |  |  |  |  |  |  |  |  |  |  | Irregularity in UV-VIS spectra (self-assembly) [2]: No substantial irregularity was detected
8 | CN(C)[C@@H]1C(O)=C(C(N)=O)C(=O)[C@@]2(O)C(O)=C3C(=O)c4c(O)cccc4[C@@](C)(O)[C@H]3C[C@@H]12 [tetracycline, reference compound] |  |  |  |  |  |  | 99 |  |  |  |  |  |  |  |  | 
9 | CN[C@H](CC(C)C)C(=O)N[C@H]1C(=O)N[C@@H](CC(N)=O)C(=O)N[C@H]2C(=O)N[C@H]3C(=O)N[C@H](C(=O)N[C@H](C(=O)O)c4cc(O)cc(O)c4-c4cc3ccc4O)[C@H](O)c3ccc(c(Cl)c3)Oc3cc2cc(c3O[C@@H]2O[C@H](CO)[C@@H](O)[C@H](O)[C@H]2O[C@H]2C[C@](C)(N)[C@H](O)[C@H](C)O2)Oc2ccc(cc2Cl)[C@H]1O [vancomycin, reference compound] |  |  |  |  |  |  |  |  |  |  |  |  |  |  |  | inhibition at 25 µg/mL (Enterococcus faecalis): 99%; inhibition at 25 µg/mL (Staphylococcus aureus): 99%
